Experimental findings from US20070219212A1, “Pyranouidole Derivatives and the Use Thereof for the Treatment of Hepatitis C Virus Infection or Disease” (priority 2004, published 2007) are described below.

Assay [1] has as its target BB7 RNA-dependent RNA polymerase hepatitis C virus protein (Con1 HCV sequence) (Hepatitis C virus genotype 1b, UniProt Q9WMX2). The assay is described as follows: Hepatitis C polymerase (BB7) inhibition. The format is biochemical. The text has this:
For purposes of this invention, the term “BB7” denotes an RNA-dependent RNA polymerase hepatitis C virus protein sequence which is derived from HCV replicon. A discussion of BB7 and related technology can be found in Blight, K. et al. (2000) Science 290:1972-1974. BB7 can be licensed from Apath, LLC (893 North Warson Road, Saint Louis Mo. 63141, USA). BB7 is also referred to as Con1 HCV sequence and discussions of Con1 can be found in the following references: Lohmann, V. et al. (1999) Science 285:110-113; Pietschmann, T. et al. (2001) J. Virol. […]:1252-1264; Lohmann, V. et al. (2001) J. Virol. 75:1437-1449.
(§1) The ability of the compounds of the present invention to inhibit Hepatitis C Polymerase was established by the following experimental procedure:
(§2) • 0.5M Na Phosphate buffer. Per liter, weigh 134 gr Na2HPO4.7H2O, add water to 900 ml. Adjust pH to 7.0 with phosphoric acid. Top off with water to 1 L. • Dilute nucleotides 1:1000 to 10 μM (GTP and CTP) or 1:100 to 100 μM (ATP and UTP) into RNase free water. Procedure: • (1) Compounds 10 μl at […] in 15% dimethylsulfoxide (DMSO) When starting from 100 μg/ml compound stock in 1% DMSO: Dispense 5 μl 30% DMSO per well Dispense 5 μl compound (100 μg/ml) per well. When starting from 50 μg/ml compound stock in 15% DMSO: Add 10 μl compound per well.
(§3) Add 20 μl enzyme mix into each well of the assay plate. Incubate compound and enzyme at room temperature for 15 minutes • (3) Template mix—prepare ahead
(§4) Spin down a tube of RNA (5 μg/tube stored in 75% ethanol and 0.3 M sodium acetate) in a microcentrifuge for 20 minutes at 4° C. One tube is enough for 1-1.5 plates. Remove as much ethanol from the tube as possible by inverting the tube. Be gentle, pellet RNA may not adhere to the tube. Vacuum dry the RNA. Resuspend the RNA by adding 1 ml of DEPC water, close the cap of the tube tightly. To dissolve RNA, incubate RNA solution on ice for ˜60 minutes and gently vortex. Spin briefly to ensure all RNA solution is down to the bottom of the tube before opening cap. Gently transfer RNA solution into a 5 ml or larger tube. Add another 3 ml of DEPC water (total 4 ml of volume).
(§5) Add the following volumes of reagents
(§6) Add 20 μl template mix per reaction (i.e. 20 ng of pOF per reaction or ˜3 nM) • (4) Incubate reaction at room temperature (22-25° C.) for 2 hours. • (5) Stop reaction by adding 50 μl of 170 mM EDTA.
(§7) Final concentration of EDTA is 85 mM. • (6) Prewet filters of Millipore multiscreen assay plate by adding 200 μl of 0.5 M sodium phosphate buffer, pH 7.0 into each well. Let stand at room temperature for 2-3 minutes. • (7) Place the multiscreen filter plate onto a Millipore Manifold and turn on vacuum to allow buffer to flow through. Turn off vacuum. Transfer 80 μl of the reaction product into each well of the filter plate. Let stand for 2-3 minutes. Turn on vacuum to filter reaction product. • (8) Turn off vacuum. Add 200 μl of 0.5 M sodium phosphate buffer, pH 7.0 into each well to wash filter. Turn on vacuum.
(§8) Repeat step (8) three more times. • (9) Remove polypropylene bottom. Spot dry filter at the bottom with paper towel. Air dry filter plate on a bench for 1 hour. Add 40 μl Super Mix scintillant. Seal top of the plate with a tape. Place plate into a Packard carrier or micro-beta carrier. • (10) Count plate using a Packard Topcount or micro-beta counter. Count (for example using Program 10) for ^33P in Top count or ^33P program in micro-beta.
(§9) See, Ferrari et al. 1999. J. Virology 73:1649-1654: “Characterization of soluble Hepatitis C virus RNA-dependent RNA polymerase expressed in E. coli and Takamizawa et al. 1991” and J. Virology 65:1105-1113: “Structure and characterization of the Hepatitis C virus genome isolated from human carriers,” both references are hereby incorporated by reference.

In assay [2] the target is T1, NS5B from the BK strain (genotype 1b) (Hepatitis C virus genotype 1b, UniProt P26663).
T1 construct: NS5B from the BK strain (genotype 1b) is expressed in E coli as a protein in which the 21 C-terminal amino acids are replaced; made in house; host or cells: E. coli
T1 sequence (P26663 2420-2989): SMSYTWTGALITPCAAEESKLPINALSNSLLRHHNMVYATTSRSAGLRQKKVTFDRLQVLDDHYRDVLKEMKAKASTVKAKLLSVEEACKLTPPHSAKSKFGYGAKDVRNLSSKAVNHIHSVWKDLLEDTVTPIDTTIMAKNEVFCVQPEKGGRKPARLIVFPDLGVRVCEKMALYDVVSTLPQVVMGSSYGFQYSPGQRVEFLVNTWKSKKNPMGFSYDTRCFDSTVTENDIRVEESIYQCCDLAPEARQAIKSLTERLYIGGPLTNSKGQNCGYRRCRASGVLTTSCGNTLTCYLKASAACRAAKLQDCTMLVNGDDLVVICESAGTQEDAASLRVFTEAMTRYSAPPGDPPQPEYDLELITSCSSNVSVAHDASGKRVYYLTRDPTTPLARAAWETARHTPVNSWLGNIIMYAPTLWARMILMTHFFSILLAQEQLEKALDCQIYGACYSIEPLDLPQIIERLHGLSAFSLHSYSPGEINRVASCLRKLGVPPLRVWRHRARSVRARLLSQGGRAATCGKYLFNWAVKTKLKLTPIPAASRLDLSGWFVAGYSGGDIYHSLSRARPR
The assay is described as follows: Hepatitis C polymerase (NS5B, BK strain) inhibition, radioactive filter assay. The format is biochemical. The conditions noted are these: NS5B BK strain (genotype 1b).
Excerpt: as §1
NS5B from the BK strain (genotype 1b) is expressed in E coli as a protein in which the 21 C-terminal amino acids are replaced with a short linker and a hexahistidine tag ([…]). The purified protein is mixed with radioactive nucleotides and allowed to replicate a heteropolymeric RNA substrate, primed by an endogenous short hairpin, resulting in an approximately 760 nt product. The radioactive product is captured on a filter and quantitated after removal of the unincorporated nucleotides.
as §2, §3, §4, §5, §6, §7, §8, §9

Setting [3] is: BB7 (Con1) NS5B, read-out: BB7 IC50.

Where two headings read alike, the source gives them in different places.

Chain of BB7 RNA-dependent RNA polymerase hepatitis C virus protein (Con1 HCV sequence) (Q9WMX2 2420-3010): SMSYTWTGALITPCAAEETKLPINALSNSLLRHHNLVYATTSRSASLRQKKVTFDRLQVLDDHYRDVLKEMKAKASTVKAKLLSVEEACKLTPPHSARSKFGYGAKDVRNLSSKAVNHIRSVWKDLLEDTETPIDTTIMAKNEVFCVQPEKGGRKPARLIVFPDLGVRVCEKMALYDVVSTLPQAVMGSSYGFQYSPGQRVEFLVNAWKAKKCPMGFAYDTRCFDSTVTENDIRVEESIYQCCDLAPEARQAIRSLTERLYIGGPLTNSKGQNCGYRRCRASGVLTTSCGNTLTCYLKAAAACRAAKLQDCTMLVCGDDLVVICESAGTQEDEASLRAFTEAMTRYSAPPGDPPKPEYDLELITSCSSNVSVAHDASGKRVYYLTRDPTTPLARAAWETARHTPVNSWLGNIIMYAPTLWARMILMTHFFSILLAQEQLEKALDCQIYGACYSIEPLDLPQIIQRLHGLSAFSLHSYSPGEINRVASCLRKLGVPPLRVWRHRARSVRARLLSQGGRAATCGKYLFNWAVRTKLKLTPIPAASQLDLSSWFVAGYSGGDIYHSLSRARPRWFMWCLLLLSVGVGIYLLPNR

The term IC50 denotes the concentration that inhibits the measured activity by half. For the molecule `CCCC1(CC(=O)O)OCCc2c1[nH]c1c(C)c(OCCC3CC3)cc(C#N)c21` (stereo not shown) [Example 48], the IC50 in assay [1] and in assay [2] was less than 500 nM throughout.

Regarding `CCCC1(CC(=O)O)OCCc2c1[nH]c1c(C)c(OCC(C)OC)cc(C#N)c21` (stereo not shown) [Example 121], the concentration for half-maximal inhibition (IC50) in assay [1] and in assay [2] was less than 500 nM in each case.

As to `CCCC1(CC(=O)O)OCCc2c1[nH]c1c(C)c(OCc3ccnc(C(C)O)c3)cc(C#N)c21` (stereo not shown) [Example 92], the IC50 in assay [1] and in assay [2] was less than 500 nM throughout.

As for `CCCC1(CC(=O)O)OCCc2c1[nH]c1c(C)c(OCc3ccn(C)n3)cc(C#N)c21` (stereo not shown) [Example 82], the IC50 in assay [1] and in assay [2] was less than 500 nM each time.

Consider `CCC[C@]1(CC(=O)O)OCCc2c1[nH]c1c(C)c(O)cc(C#N)c21` [Example 46], for which the IC50 in assay [1] and in assay [2] was less than 500 nM throughout.

Consider `CCCC1(CC(=O)O)OCCc2c1[nH]c1c(C)c(OCc3ccc(N4CCOCC4)nc3)cc(C#N)c21` (stereo not shown) [Example 68], for which the IC50 in assay [1] and in assay [2] was less than 500 nM throughout.

For `CCCC1(CC(=O)O)OCCc2c1[nH]c1c(C)c(OCCOC(C)C)cc(C#N)c21` (stereo not shown) [Example 112], the IC50 in assay [1] and in assay [2] was less than 500 nM each time.

As for `CCCC1(CC(=O)O)OCCc2c1[nH]c1c(C)c(OCc3ccnc(COC)c3)cc(C#N)c21` (stereo not shown) [Example 94], the IC50 in assay [1] (setting [3]) and in assay [2] was less than 500 nM each time.

On to `CCCC1(CC(=O)O)OCCc2c1[nH]c1c(C)c(OCc3ccnc(C(C)=O)c3)cc(C#N)c21` (stereo not shown) [Example 90], for which the IC50 in assay [1] and in assay [2] was less than 500 nM in each case.

`CCOCCOc1cc(C#N)c2c3c([nH]c2c1C)C(CC(=O)O)([C@@H](C)CC)OCC3` (mixture of isomers) [Example 33, (1R*,10S)-[1-sec-Butyl-5-cyano-7-(2-ethoxy-ethoxy)-8-methyl-1,3,4,9-tetrahydro-pyrano[3,4-b]indol-1-yl]-acetic acid]: the IC50 in assay [1] and in assay [2] was less than 500 nM throughout.

With `CCCC1(CC(=O)O)OCCc2c1[nH]c1c(C)c(COC)cc(C#N)c21` (stereo not shown) [Example 2, (5-Cyano-7-methoxymethyl-8-methyl-1-propyl-1,3,4,9-tetrahydro-pyrano[3,4-b]indol-1-yl)-acetic acid], the IC50 in assay [1] is less than 500 nM; in assay [2], 500 to 5000 nM.

In the case of `CCCC1(CC(=O)O)OCCc2c1[nH]c1c(C)c(COCC3CCCC3)cc(C#N)c21` (stereo not shown) [Example 10, (5-Cyano-7-cyclopentylmethoxymethyl-8-methyl-1-propyl-1,3,4,9-tetrahydro-pyrano[3,4-b]indol-1-yl)-acetic acid], the IC50 in assay [1] and in assay [2] was 500 to 5000 nM in each case.

`CCCC1(CC(=O)O)OCCc2c1[nH]c1c(C)c(COCc3sc(C)nc3C)cc(C#N)c21` (stereo not shown) [Example 19, [5-Cyano-7-(2,4-dimethyl-thiazol-5-ylmethoxymethyl)-8-methyl-1-propyl-1,3,4,9-tetrahydro-pyrano[3,4-b]indol-1-yl]-acetic acid]: the half-maximal inhibitory concentration (IC50) in assay [1] and in assay [2] was 500 to 5000 nM each time.

With `CCCC1(CC(=O)O)OCCc2c1[nH]c1c(C)c(OCc3cccc(N)n3)cc(C#N)c21` (stereo not shown) [Example 59], the half-maximal inhibitory concentration (IC50) in assay [1] and in assay [2] was less than 500 nM throughout.

With `CCCC1(CC(=O)O)OCCc2c1[nH]c1c(C)c(OCc3ccnc(C(C)=NOC)c3)cc(C#N)c21` (stereo not shown) [Example 95], the IC50 in assay [1] and in assay [2] was less than 500 nM in each case.

With `CCCC1(CC(=O)O)OCCc2c1[nH]c1c(C)c(OCc3cc(C4CC4)n(C)n3)cc(C#N)c21` (stereo not shown) [Example 130], the IC50 in assay [1] and in assay [2] was less than 500 nM throughout.

For `CCC[C@]1(CC(=O)O)OCCc2c1[nH]c1c(C)c(OCCOC(C)C)cc(C#N)c21` [Example 26, (R)-[5-Cyano-7-(2-isopropoxy-ethoxy)-8-methyl-1-propyl-1,3,4,9-tetrahydro-pyrano[3,4-b]indol-1-yl]-acetic acid], the IC50 in assay [1] and in assay [2] was less than 500 nM throughout.

Take `CCCC1(CC(=O)O)OCCc2c1[nH]c1c(C)c(OCc3cc(C)n(CC)n3)cc(C#N)c21` (stereo not shown) [Example 140]: the IC50 in assay [1] and in assay [2] was less than 500 nM in each case.

Regarding `CCCC1(CC(=O)O)OCCc2c1[nH]c1c(C)c(OCc3cc(C(F)(F)F)n[nH]3)cc(C#N)c21` (stereo not shown) [Example 129], the 50% inhibitory concentration (IC50) in assay [1] (setting [3]) and in assay [2] was less than 500 nM each time.

Consider `CCCC1(CC(=O)O)OCCc2c1[nH]c1c(C)c(OCc3cc(CC)n(C)n3)cc(C#N)c21` (stereo not shown) [Example 139], for which the IC50 in assay [1] and in assay [2] was less than 500 nM in each case.

As to `CCCC1(CC(=O)O)OCCc2c1[nH]c1c(C)c(OCC(C)=NOCC)cc(C#N)c21` (stereo not shown) [Example 105], the IC50 in assay [1] (read-out: BB7 IC50, BB7 (Con1) NS5B) is less than 500 nM; in assay [2], less than 500 nM.

`CCCC1(CC(=O)O)OCCc2c1[nH]c1c(C)c(COCc3ccc4c(c3)OCO4)cc(C#N)c21` (stereo not shown) [Example 16, [7-(Benzo[1,3]dioxol-5-ylmethoxymethyl)-5-cyano-8-methyl-1-propyl-1,3,4,9-tetrahydro-pyrano[3,4-b]indol-1-yl]-acetic acid]: the IC50 in assay [1] was less than 500 nM; in assay [2], 500 to 5000 nM.

With `CCCC1(CC(=O)O)OCCc2c1[nH]c1c(C)c(OC[C@@H]3CCC(=O)N3)cc(C#N)c21` (stereo partly shown) [Example 97], the IC50 in assay [1] and in assay [2] was less than 500 nM each time.

`CCC[C@]1(CC(=O)O)OCCc2c1[nH]c1c(C)c(OCCOCC)cc(C#N)c21` [Example 118]: the 50% inhibitory concentration (IC50) in assay [1] and in assay [2] was less than 500 nM in each case.

As for `CCCC1(CC(=O)O)OCCc2c1[nH]c1c(C)c(OCc3ccn(CC)n3)cc(C#N)c21` (stereo not shown) [Example 137], the IC50 in assay [1] and in assay [2] was less than 500 nM in each case.

Turning to `CCCC1(CC(=O)O)OCCc2c1[nH]c1c(C)c(CO[C@H]3CCOC3)cc(C#N)c21` (mixture of isomers) [Example 13, (3′S,1S*)[5-Cyano-8-methyl-1-propyl-7-(tetrahydro-furan-3-yloxymethyl)-1,3,4,9-tetrahydro-pyrano[3,4-b]indol-1-yl]-acetic acid], the IC50 in assay [1] and in assay [2] was 500 to 5000 nM in each case.

Regarding `CCCC1(CC(=O)O)OCCc2c1[nH]c1c(C)c(OCc3csc(C(C)(C)C)n3)cc(C#N)c21` (stereo not shown) [Example 85], the IC50 in assay [1] and in assay [2] was less than 500 nM throughout.

As to `CCCC1(CC(=O)O)OCCc2c1[nH]c1c(C)c(OCCOCC)cc(C#N)c21` (stereo not shown) [Example 111], the IC50 in assay [1] and in assay [2] was less than 500 nM each time.

On to `CCCC1(CC(=O)O)OCCc2c1[nH]c1c(C)c(OCCCc3cc(C)on3)cc(C#N)c21` (stereo not shown) [Example 135], for which the IC50 in assay [1] and in assay [2] was less than 500 nM each time.
